In ChEMBL document CHEMBL3808373 (Bioorg Med Chem Lett, 2016):
Active and inactive are the calls of the source. The calls are words filed in the database; no cut-off is given here.

Key:
[1] = Half life in rat microsomes; assay type: ADME, Microsome
[2] = Half life in dog microsomes; assay type: ADME, Canis lupus familiaris, Microsome
[3] = biological target: T1, Nav1.5 (peak sodium current, use-dependent block) (Homo sapiens, UniProt Q14524); assay: Inhibition of 3 Hz stimulated human Nav1.5alpha expressed in HEK293 cells assessed as use dependent block of peak sodium current at 1 uM with 3 compound additions at 60 sec intervals at holding potential -100 mV incubated for 320 sec after third compound addition followed by second period of 3 Hz stimulation by PatchXpress method relative to control; assay type: cell-based; settings: HEK293 cells expressing human Nav1.5alpha
T1 sequence (Q14524 whole entry): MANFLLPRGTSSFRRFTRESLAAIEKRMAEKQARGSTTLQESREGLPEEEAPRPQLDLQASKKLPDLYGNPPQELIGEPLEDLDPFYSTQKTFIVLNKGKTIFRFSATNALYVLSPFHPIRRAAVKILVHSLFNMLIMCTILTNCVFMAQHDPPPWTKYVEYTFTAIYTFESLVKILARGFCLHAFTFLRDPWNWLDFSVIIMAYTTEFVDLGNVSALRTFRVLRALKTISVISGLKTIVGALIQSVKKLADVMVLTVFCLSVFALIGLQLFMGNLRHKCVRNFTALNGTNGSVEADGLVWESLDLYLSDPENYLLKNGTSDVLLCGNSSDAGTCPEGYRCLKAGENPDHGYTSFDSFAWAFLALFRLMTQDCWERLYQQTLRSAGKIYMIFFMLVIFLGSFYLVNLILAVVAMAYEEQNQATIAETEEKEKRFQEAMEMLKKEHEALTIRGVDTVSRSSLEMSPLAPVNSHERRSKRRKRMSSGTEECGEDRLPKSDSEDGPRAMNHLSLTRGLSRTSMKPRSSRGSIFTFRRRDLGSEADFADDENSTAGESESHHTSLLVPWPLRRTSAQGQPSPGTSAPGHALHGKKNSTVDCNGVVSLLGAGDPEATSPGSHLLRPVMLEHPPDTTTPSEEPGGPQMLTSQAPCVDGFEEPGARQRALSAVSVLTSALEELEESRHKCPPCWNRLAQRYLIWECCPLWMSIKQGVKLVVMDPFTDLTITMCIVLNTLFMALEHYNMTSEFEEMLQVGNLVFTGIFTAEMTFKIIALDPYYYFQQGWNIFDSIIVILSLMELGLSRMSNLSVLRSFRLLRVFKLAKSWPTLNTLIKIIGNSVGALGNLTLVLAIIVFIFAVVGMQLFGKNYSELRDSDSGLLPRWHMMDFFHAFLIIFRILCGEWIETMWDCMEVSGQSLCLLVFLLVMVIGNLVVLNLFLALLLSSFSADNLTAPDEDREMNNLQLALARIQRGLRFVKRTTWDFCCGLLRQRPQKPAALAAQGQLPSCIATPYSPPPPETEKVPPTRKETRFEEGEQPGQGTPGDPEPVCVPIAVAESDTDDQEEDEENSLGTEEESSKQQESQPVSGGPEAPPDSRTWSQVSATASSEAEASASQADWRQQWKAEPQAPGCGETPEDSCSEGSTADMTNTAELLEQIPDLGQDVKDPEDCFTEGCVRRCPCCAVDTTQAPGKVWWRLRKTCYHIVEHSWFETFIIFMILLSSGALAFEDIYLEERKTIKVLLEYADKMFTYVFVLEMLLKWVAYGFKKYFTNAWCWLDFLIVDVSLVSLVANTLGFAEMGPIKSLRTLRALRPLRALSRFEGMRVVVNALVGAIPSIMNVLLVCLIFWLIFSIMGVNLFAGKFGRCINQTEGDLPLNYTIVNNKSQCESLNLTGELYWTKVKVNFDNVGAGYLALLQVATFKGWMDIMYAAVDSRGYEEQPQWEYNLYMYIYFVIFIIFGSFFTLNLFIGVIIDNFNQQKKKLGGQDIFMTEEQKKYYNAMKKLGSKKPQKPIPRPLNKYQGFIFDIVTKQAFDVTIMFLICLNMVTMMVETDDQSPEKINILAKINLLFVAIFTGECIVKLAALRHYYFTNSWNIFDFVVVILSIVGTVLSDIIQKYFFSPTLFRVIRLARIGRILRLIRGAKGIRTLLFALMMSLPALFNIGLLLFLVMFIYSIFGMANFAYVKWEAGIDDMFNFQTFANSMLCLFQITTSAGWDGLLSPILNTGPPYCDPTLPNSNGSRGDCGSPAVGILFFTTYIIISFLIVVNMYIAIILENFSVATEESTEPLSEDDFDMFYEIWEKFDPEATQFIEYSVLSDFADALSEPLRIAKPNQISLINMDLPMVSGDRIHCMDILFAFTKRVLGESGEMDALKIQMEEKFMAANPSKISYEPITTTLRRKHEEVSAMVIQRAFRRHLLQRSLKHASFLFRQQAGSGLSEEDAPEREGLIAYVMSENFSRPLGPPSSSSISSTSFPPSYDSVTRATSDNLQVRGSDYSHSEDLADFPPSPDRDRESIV

[4] = biological target: T2, Sodium channel protein type 5 subunit alpha (Homo sapiens, UniProt Q14524); assay: Inhibition of 0.1 Hz stimulated human Nav1.5alpha expressed in HEK293 cells assessed as inhibition of late sodium current with 3 compound additions for 7 to 8 mins at holding potential -120 mV in presence of late sodium current activator tefluthrin/ATX2 measured immediately after third compound addition by PatchXpress method; assay type: cell-based
T2 sequence (Q14524 whole entry): as above

[5] = biological target: T3, Sodium channel protein type 1 subunit alpha (Homo sapiens, UniProt P35498); assay: Inhibition of 10 Hz stimulated Nav1.1 (unknown origin) assessed as inhibition of peak sodium current at 10 uM by automated patch clamp method relative to control
[6] = biological target: T2, Sodium channel protein type 5 subunit alpha; settings: HEK293, human, read-out: INH
Description: Inhibition of 0.1 Hz stimulated human Nav1.5alpha expressed in HEK293 cells assessed as inhibition of late sodium current at 10 uM with 3 compound additions for 7 to 8 mins at holding potential -120 mV in presence of late sodium current activator tefluthrin/ATX2 measured immediately after third compound addition by PatchXpress method relative to control

[7] = Half life in human microsomes; assay type: ADME, Microsome
[8] = Lipophilicity, log D of compound; assay type: physicochemical; settings: octanol/water
[9] = biological target: T1, Nav1.5 (peak sodium current, use-dependent block); assay: Inhibition of 3 Hz stimulated human Nav1.5alpha expressed in HEK293 cells assessed as use dependent block of peak sodium current at 0.3 uM with 3 compound additions at 60 sec intervals at holding potential -100 mV incubated for 320 sec after third compound addition followed by second period of 3 Hz stimulation by PatchXpress method relative to control; assay type: cell-based; settings: HEK293 cells expressing human Nav1.5alpha
Rattus norvegicus = species: Rattus norvegicus; assay: Toxicity in rat assessed as liver lesions after 7 days; assay type: organism-based; settings: in vivo, 168 h
[10] = biological target: T4, Sodium channel protein type 2 subunit alpha (Homo sapiens, UniProt Q99250); assay: Inhibition of 10 Hz stimulated Nav1.2 (unknown origin) by manual patch clamp method
[11] = Volume of distribution in rabbit; assay type: ADME, organism-based, Oryctolagus cuniculus; settings: in vivo
[12] = biological target: T3, Sodium channel protein type 1 subunit alpha; assay: Inhibition of 10 Hz stimulated Nav1.1 (unknown origin) by manual patch clamp method
[13] = Terminal half life in rat; assay type: ADME, organism-based; settings: in vivo, read-out: beta t1/2 (converted)
[14] = Terminal half life in dog; assay type: ADME, organism-based, Canis lupus familiaris; settings: in vivo, read-out: beta t1/2 (converted)
[15] = Plasma protein binding in rabbit; assay type: ADME, cell-free, Oryctolagus cuniculus; settings: read-out: PPB (converted)
[16] = biological target: T3, Sodium channel protein type 1 subunit alpha; assay: Inhibition of 1 Hz stimulated Nav1.1 (unknown origin) by manual patch clamp method
[17] = biological target: Voltage-gated inwardly rectifying potassium channel KCNH2 (Homo sapiens, UniProt Q12809); assay: Inhibition of human ERG
[18] = Volume of distribution in rat; assay type: ADME, organism-based; settings: in vivo
[19] = Oral bioavailability in rat; assay type: ADME, organism-based; settings: in vivo
[20] = Volume of distribution in dog; assay type: ADME, organism-based, Canis lupus familiaris; settings: in vivo
[21] = biological target: T2, Sodium channel protein type 5 subunit alpha; assay: Inhibition of 3 Hz stimulated Nav1.5 (unknown origin) assessed as inhibition of peak sodium current by manual patch clamp method
[22] = Plasma protein binding in human; assay type: ADME, cell-free; settings: read-out: PPB (converted)
[23] = Clearance in rat; assay type: ADME, organism-based; settings: in vivo
[24] = Ratio of drug level in brain to plasma in dog; assay type: ADME, cell-free, Canis lupus familiaris; settings: read-out: BPR
[25] = Inhibition of Nav1.5 in isolated rabbit heart assessed as inhibition of ATX2-induced prolongation of mean action potential duration; settings: Oryctolagus cuniculus
[26] = biological target: T4, Sodium channel protein type 2 subunit alpha; assay: Inhibition of 1 Hz stimulated Nav1.2 (unknown origin) by manual patch clamp method
Oryctolagus cuniculus = species: Oryctolagus cuniculus; assay: Inhibition of Nav1.5 in isolated rabbit heart assessed as inhibition of ATX2-induced prolongation of mean action potential duration at 10 to 100000 nM relative to control
[27] = Volume of distribution in cynomolgus monkey; assay type: ADME, organism-based, Macaca fascicularis; settings: in vivo
[28] = biological target: T2, Sodium channel protein type 5 subunit alpha; assay: Inhibition of 1 Hz stimulated Nav1.5 (unknown origin) assessed as inhibition of peak sodium current by manual patch clamp method
[29] = Clearance in rat microsomes; assay type: ADME, Microsome
[30] = biological target: T1, Nav1.5 (peak sodium current, use-dependent block); assay: Inhibition of 3 Hz stimulated human Nav1.5alpha expressed in HEK293 cells assessed as use dependent block of peak sodium current at 10 uM with 3 compound additions at 60 sec intervals at holding potential -100 mV incubated for 320 sec after third compound addition followed by second period of 3 Hz stimulation by PatchXpress method relative to control; assay type: cell-based; settings: HEK293 cells expressing human Nav1.5alpha
[31] = Clearance in dog; assay type: ADME, organism-based, Canis lupus familiaris; settings: in vivo
[32] = Oral bioavailability in dog; assay type: ADME, organism-based, Canis lupus familiaris; settings: in vivo
[33] = Plasma protein binding in rat; assay type: ADME, cell-free; settings: read-out: PPB (converted)
[34] = Plasma protein binding in dog; assay type: ADME, cell-free, Canis lupus familiaris; settings: read-out: PPB (converted)
Heart = assay: Protection against […]/clofilium-induced ventricular arrhythmias in isolated rabbit heart assessed as inhibition of torsade des pointes at 3 uM; assay type: functional, tissue-based; settings: Oryctolagus cuniculus, Cardiac ventricle
[35] = Clearance in human microsomes; assay type: ADME, Microsome
[36] = Clearance in cynomolgus monkey; assay type: ADME, organism-based, Macaca fascicularis; settings: in vivo
[37] = Clearance in rabbit; assay type: ADME, organism-based, Oryctolagus cuniculus; settings: in vivo
[38] = Terminal half life in monkey; assay type: ADME, organism-based, Macaca mulatta; settings: rhesus monkey, in vivo; read-out: beta t1/2 (converted)
[39] = Clearance in cynomolgus monkey microsomes; assay type: ADME, Macaca fascicularis, Microsome
[40] = Ratio of drug level in brain to plasma in rat; assay type: ADME, cell-free; settings: read-out: BPR
[41] = biological target: T2, Sodium channel protein type 5 subunit alpha; assay: Inhibition of 0.1 Hz stimulated human Nav1.5alpha expressed in HEK293 cells assessed as inhibition of late sodium current at 1 uM with 3 compound additions for 7 to 8 mins at holding potential -120 mV in presence of late sodium current activator tefluthrin/ATX2 measured immediately after third compound addition by PatchXpress method relative to control; assay type: cell-based
[42] = Terminal half life in rabbit; assay type: ADME, organism-based, Oryctolagus cuniculus; settings: in vivo, read-out: beta t1/2 (converted)
[43] = biological target: T2, Sodium channel protein type 5 subunit alpha; assay: Inhibition of Nav1.5 (unknown origin) assessed as inhibition of late sodium current by manual patch clamp method
[44] = Clearance in dog microsomes; assay type: ADME, Canis lupus familiaris, Microsome
[45] = biological target: T2, Sodium channel protein type 5 subunit alpha; assay: Inhibition of 0.1 Hz stimulated human Nav1.5alpha expressed in HEK293 cells assessed as inhibition of late sodium current at 300 nM with 3 compound additions for 7 to 8 mins at holding potential -120 mV in presence of late sodium current activator tefluthrin/ATX2 measured immediately after third compound addition by PatchXpress method relative to control; assay type: cell-based

SMILES: Cc1nc(Cn2nc3ccc(-c4ccc(Oc5ccc(F)cc5)cc4)cn3c2=O)no1
- half-life [1]: 2.42 h
- half-life [2]: 2.78 h
- inhibition at 320 s, 1 µM [3]: 46%
- IC50 [4]: 541 µM
- inhibition [5]: 65%
- inhibition at 10 µM [6]: ≥ 70%
- half-life [7]: 3.45 h

SMILES: Cc1cnc(Cn2nc3ccc(-c4ccc(OC(F)(F)F)cc4)cn3c2=O)o1
- half-life [1]: 0.4 h
- half-life [2]: 3.8 h
- IC50 [4]: 2.5 µM
- inhibition [5]: 44%
- inhibition at 10 µM [6]: ≥ 70%
- half-life [7]: 4.8 h

SMILES: Cc1noc(Cn2nc3ccc(-c4ccc(Oc5ccc(F)cc5)cc4)cn3c2=O)n1
- half-life [1]: 1.42 h
- half-life [2]: 3.62 h
- IC50 [4]: 215 µM
- inhibition at 10 µM [6]: ≥ 70%
- half-life [7]: 2.12 h
- logD [8]: 3
- inhibition at 320 s, 0.3 µM [9]: 33%

SMILES: O=c1n(Cc2nc(C3CC3)co2)nc2ccc(-c3ccc(OC(F)(F)F)cc3)cn12
- half-life [1]: 0.65 h
- half-life [2]: 1.8 h
- IC50 [4]: 3 µM
- inhibition at 10 µM [6]: ≥ 70%
- half-life [7]: 0.65 h

SMILES: Cc1noc(Cn2nc3ccc(-c4ccc(OC(F)(F)F)cc4)cn3c2=O)n1
- half-life [1]: 3.3 h
- Activity (Rattus norvegicus): Toxic
- IC50 [10]: 8.1 µM
- Vd [11]: 2.24 L/kg
- IC50 [12]: 4.8 µM
- half-life [2]: 3.93 h
- half-life [13]: 2.1 h
- half-life [14]: 17.3 h
- fraction unbound [15]: 0.043
- IC50 [16]: > 10 µM
- IC50 [17]: > 10 µM
- IC50 [4]: 1.9 µM
- Vd [18]: 1.95 L/kg
- bioavailability [19]: 44.3%
- Vd [20]: 4.23 L/kg
- IC50 [21]: > 10 µM
- fraction unbound [22]: 0.05
- clearance [23]: 12 mL/min/kg
- Kp [24]: > 20
- IC50 [25]: 1.2 µM
- IC50 [26]: 4.2 µM
- inhibition (Oryctolagus cuniculus): 90%
- Vd [27]: 2.29 L/kg
- IC50 [28]: > 10 µM
- CL [29]: 8.67 mL/min/kg
- inhibition [5]: 8%
- inhibition at 10 µM [6]: ≥ 70%
- inhibition at 320 s, 10 µM [30]: 10%
- clearance [31]: 7.98 mL/min/kg
- bioavailability [32]: 72.8%
- half-life [7]: 5.13 h
- fraction unbound [33]: 0.046
- fraction unbound [34]: 0.057
- inhibition (Heart): Active
- CL [35]: 3.5 mL/min/kg
- clearance [36]: 7.97 mL/min/kg
- clearance [37]: 7.03 mL/min/kg
- half-life [38]: 4.78 h
- CL [39]: 6.7 mL/min/kg
- Kp [40]: > 20
- inhibition at 1 µM [41]: 31%
- half-life [42]: 4.81 h
- IC50 [43]: 1.33 µM
- CL [44]: 4.33 mL/min/kg

SMILES: FC(F)(F)Oc1ccc(-c2ccc3nnc(C(F)(F)F)n3c2)cc1
- IC50 [10]: 7.9 µM
- IC50 [12]: 0.4 µM
- IC50 [16]: > 10 µM
- IC50 [17]: > 10 µM
- Kp [24]: 3
- IC50 [26]: 0.4 µM
- Kp [40]: 5

SMILES: O=c1[nH]nc2ccc(-c3ccc(Oc4ccc(F)cc4)cc3)cn12
- half-life [1]: 0.717 h
- half-life [2]: 4.55 h
- inhibition at 320 s, 1 µM [3]: 28%
- IC50 [4]: 1900 µM
- inhibition [5]: 40%
- inhibition at 10 µM [6]: ≥ 70%
- half-life [7]: 6.58 h

SMILES: Cc1cc(Cn2nc3ccc(-c4ccc(OC(F)(F)F)cc4)cn3c2=O)on1
- IC50 [4]: > 10 µM

SMILES: CCc1noc(Cn2nc3ccc(-c4ccc(OC(F)(F)F)cc4)cn3c2=O)n1
- IC50 [4]: 4 µM
- inhibition at 10 µM [6]: ≥ 70%

SMILES: Cc1nc(Cn2nc3ccc(-c4ccc(Oc5ccc(Cl)cc5)cc4)cn3c2=O)no1
- half-life [1]: 6.5 h
- half-life [2]: 5.9 h
- inhibition at 320 s, 1 µM [3]: 40%
- inhibition [5]: 79%
- inhibition at 10 µM [6]: ≥ 70%
- half-life [7]: 6.58 h
- inhibition at 0.3 µM [45]: 60%
